How the values were obtained:
[1] = target: Glycogen synthase kinase-3 beta (Homo sapiens) (UniProt P49841); assay: GSK3B SGC Tm panel (DSF); details: for ΔTm: Compound concentration 10.0 uM
[2] = target: Cyclin-dependent kinase 16 (Homo sapiens) (UniProt Q00536); assay: PCTK1 SGC Tm panel (DSF); details: for ΔTm: Compound concentration 10.0 uM
[3] = target: T1, Mitogen-activated protein kinase kinase kinase 5 (Homo sapiens) (UniProt Q99683); assay: MAP3K5 SGC Tm panel (DSF); details: for ΔTm: Compound concentration 10.0 uM
T1 sequence (whole entry): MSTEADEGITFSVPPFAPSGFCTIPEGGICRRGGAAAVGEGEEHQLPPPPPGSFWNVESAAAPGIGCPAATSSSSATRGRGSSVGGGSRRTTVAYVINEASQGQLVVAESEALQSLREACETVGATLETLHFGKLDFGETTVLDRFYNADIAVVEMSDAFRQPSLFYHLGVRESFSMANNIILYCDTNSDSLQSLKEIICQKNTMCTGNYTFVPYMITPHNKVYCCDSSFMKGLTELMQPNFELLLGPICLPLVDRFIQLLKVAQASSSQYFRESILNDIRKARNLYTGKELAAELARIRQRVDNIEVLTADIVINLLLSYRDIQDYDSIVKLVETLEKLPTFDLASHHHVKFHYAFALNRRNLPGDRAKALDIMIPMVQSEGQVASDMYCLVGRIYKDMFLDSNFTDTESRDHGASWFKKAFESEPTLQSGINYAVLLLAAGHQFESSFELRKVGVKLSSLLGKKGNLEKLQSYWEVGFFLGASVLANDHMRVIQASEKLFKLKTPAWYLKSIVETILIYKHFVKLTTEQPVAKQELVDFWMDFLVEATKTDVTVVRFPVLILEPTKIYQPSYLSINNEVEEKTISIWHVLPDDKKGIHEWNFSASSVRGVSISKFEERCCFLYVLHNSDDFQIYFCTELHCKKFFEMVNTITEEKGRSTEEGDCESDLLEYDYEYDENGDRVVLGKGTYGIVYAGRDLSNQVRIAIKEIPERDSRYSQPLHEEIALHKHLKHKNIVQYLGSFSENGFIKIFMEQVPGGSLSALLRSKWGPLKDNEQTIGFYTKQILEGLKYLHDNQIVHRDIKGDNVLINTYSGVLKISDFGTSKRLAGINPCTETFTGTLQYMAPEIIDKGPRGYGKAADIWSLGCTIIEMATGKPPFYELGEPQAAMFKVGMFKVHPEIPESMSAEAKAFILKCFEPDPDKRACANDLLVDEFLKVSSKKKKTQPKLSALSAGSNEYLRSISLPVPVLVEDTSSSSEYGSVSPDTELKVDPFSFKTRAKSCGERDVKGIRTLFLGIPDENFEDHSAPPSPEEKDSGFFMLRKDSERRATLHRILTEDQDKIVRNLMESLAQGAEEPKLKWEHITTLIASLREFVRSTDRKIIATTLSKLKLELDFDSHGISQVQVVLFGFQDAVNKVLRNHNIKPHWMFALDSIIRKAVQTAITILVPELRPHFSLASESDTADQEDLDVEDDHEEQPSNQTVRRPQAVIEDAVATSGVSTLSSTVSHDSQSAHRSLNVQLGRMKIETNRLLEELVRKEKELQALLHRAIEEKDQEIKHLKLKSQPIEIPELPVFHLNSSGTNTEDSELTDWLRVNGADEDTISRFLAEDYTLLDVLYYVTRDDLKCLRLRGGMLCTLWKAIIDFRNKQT

[4] = target: 5-hydroxytryptamine receptor 2C (Homo sapiens) (UniProt P28335); details: Compound concentration 10.0 uM
5-hydroxytryptamine receptor 2C (Homo sapiens), sequence (P28335 whole entry): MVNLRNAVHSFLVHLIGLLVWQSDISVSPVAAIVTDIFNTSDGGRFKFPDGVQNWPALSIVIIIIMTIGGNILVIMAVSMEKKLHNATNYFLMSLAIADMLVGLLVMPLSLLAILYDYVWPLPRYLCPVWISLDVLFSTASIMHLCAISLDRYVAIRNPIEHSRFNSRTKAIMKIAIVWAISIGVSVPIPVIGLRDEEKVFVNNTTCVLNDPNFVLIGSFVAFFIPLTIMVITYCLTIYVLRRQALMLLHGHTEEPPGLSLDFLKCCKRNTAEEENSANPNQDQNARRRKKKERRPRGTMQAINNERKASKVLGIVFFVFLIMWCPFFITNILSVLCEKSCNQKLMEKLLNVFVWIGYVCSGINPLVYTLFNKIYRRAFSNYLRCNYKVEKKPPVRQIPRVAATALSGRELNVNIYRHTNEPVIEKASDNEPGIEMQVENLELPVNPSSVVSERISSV

[5] = target: Calcium/calmodulin-dependent protein kinase type 1D (Homo sapiens) (UniProt Q8IU85); assay: CAMK1D SGC Tm panel (DSF); details: for ΔTm: Compound concentration 10.0 uM
Calcium/calmodulin-dependent protein kinase type 1D (Homo sapiens), sequence (Q8IU85 whole entry, looked up): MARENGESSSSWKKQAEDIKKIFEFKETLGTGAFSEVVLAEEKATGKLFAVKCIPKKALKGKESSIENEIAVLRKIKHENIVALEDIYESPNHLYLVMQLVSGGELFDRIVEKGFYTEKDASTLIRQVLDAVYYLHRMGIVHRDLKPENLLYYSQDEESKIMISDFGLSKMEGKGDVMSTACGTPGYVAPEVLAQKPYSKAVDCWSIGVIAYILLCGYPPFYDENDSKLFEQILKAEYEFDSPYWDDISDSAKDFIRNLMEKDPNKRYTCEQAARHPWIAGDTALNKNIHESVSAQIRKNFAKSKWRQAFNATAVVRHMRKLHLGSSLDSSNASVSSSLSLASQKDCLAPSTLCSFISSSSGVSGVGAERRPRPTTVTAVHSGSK

[6] = target: T2, Ephrin type-B receptor 3 (Homo sapiens) (UniProt P54753); assay: EPHB3 SGC Tm panel (DSF); details: for ΔTm: Compound concentration 10.0 uM
T2 sequence (whole entry): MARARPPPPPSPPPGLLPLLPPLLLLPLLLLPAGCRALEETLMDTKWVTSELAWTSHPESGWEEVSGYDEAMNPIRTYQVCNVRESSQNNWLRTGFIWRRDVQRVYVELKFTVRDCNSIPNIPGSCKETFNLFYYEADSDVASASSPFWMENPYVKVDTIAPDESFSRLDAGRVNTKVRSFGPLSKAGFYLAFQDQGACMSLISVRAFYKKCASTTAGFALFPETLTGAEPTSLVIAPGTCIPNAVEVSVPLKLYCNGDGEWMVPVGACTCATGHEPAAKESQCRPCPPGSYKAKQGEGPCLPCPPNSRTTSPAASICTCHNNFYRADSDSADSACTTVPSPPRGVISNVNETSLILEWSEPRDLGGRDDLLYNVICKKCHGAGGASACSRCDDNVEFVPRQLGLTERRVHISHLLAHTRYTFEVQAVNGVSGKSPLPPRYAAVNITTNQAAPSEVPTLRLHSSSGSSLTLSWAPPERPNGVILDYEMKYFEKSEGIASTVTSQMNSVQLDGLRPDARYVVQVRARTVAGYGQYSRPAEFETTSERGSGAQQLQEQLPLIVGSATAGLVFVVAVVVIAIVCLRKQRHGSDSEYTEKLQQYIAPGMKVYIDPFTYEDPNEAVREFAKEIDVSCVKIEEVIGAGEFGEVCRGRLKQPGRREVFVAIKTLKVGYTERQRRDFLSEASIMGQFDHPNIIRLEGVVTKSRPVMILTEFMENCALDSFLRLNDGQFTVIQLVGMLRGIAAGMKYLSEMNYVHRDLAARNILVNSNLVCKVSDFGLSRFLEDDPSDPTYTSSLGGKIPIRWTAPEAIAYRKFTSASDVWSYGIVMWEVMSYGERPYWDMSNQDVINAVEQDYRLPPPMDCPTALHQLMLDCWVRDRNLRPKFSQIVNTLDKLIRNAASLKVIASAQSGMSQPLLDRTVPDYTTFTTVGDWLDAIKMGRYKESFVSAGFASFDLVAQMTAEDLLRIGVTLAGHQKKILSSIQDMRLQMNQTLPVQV

[7] = target: Sigma non-opioid intracellular receptor 1 (Homo sapiens, UniProt Q99720); details: Compound concentration 10.0 uM
Sigma non-opioid intracellular receptor 1, sequence (Q99720 whole entry): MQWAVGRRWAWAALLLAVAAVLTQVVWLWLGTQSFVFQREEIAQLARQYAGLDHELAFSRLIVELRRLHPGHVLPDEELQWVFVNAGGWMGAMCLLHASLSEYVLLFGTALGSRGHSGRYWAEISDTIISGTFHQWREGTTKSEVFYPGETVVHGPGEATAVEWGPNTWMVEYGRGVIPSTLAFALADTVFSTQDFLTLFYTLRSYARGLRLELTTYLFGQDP

Glycogen synthase kinase-3 beta (Homo sapiens), sequence (P49841 whole entry, looked up): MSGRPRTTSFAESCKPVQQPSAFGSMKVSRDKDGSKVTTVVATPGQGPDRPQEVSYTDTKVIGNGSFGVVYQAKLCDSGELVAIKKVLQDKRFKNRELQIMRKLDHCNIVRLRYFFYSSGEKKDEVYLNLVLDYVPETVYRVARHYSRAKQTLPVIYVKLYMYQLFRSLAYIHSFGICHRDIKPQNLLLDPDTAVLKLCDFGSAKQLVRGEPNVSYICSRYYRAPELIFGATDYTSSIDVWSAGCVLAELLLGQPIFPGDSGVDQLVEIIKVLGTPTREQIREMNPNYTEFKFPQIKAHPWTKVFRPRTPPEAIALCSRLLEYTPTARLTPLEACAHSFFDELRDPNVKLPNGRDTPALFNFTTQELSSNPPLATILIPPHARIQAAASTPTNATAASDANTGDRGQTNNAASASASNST
Cyclin-dependent kinase 16 (Homo sapiens), sequence (Q00536 whole entry): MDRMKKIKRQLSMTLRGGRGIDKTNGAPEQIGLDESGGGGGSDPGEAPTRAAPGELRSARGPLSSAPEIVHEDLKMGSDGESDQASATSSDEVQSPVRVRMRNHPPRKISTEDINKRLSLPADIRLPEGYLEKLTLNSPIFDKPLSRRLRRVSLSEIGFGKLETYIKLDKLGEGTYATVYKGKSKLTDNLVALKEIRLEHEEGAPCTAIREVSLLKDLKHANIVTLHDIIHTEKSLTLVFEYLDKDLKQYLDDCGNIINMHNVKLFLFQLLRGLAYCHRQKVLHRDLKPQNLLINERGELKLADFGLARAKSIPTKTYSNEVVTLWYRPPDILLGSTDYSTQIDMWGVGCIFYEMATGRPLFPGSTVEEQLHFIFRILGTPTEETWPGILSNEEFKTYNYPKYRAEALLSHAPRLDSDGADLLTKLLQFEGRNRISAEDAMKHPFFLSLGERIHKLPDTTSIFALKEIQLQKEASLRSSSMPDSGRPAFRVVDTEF

SMILES | delta Tm Staurosporine positive control [1] | ΔTm [1] | delta Tm Staurosporine positive control [2] | ΔTm [2] | delta Tm Staurosporine positive control [3] | ΔTm [3] | inhibition [4] [%] | delta Tm Staurosporine positive control [5] | ΔTm [5] | delta Tm Staurosporine positive control [6] | ΔTm [6] | inhibition [7] [%]
C[C@H](NC(=O)c1cn(C2(C#N)CC2)cn1)C(=O)Nc1nc(-c2cccc(-c3ccn(C)n3)c2)cs1 | 12.1 | 0.703 | 7.03 | -1.44 | 18.1 | 1.17 | 18.3 | 10.8 | 0.455 | 7.3 | -0.415 | 83.2
COC[C@H](NC(=O)c1ccn(S(C)(=O)=O)c1)C(=O)Nc1nc(-c2cccc(-c3ccn(C)n3)c2)cs1 | 12.1 | 0.242 | 7.03 | -1.23 | 18.1 | 1.14 | 14.2 | 10.8 | 0.174 | 7.3 | -0.288 | 1.62
